Experimental data taken from patent US20260306640A1, “TECHNOLOGIES TARGETING CELL STATES” (Auron Therapeutics, Inc., priority 2023, published 2026).

Tests used:
KAT2A = KAT2A (Homo sapiens, UniProt Q92830); experiment: Western blot of KAT2A in NCI-H1048 tumors, 168 hours post last dose; assay type: in vivo; design: degrader, Western blot; conditions: FIG. 1 (F)
Procedure: (§1) FIG. 1. Provided compounds can provide various activities including inhibiting tumor growth in vivo. (A): Provided compounds can inhibit tumor growth in vivo. Nude Balb/c mice were inoculated with NCI-H1048 cells in Matrigel. Tumors were allowed to grow up to about 200 mm^3 and mice were then randomized into two groups. Mice were dosed intraperitoneally (i.p.) once per week with vehicle or 30 mg/kg compound 22. Tumor size was measured every three to four days and mice were sacrificed once vehicle tumors reached 2000 mm^3. Error bar is SEM. Dosing started at day 17 post tumor inoculation. (B): Provided technologies can reduce KAT2A and KAT2B levels and histone acetylation levels. […] Vehicle is DMSO. […] Cell count data relative to DMSO control after 8 days of treatment with compound 22 are presented as examples to confirm inhibition. GI50=6 nM. (D): Provided technologies can inhibit tumor growth in vivo. Nude balb/c mice inoculated with H1048 tumors were dosed intraperitoneally once per week (qw i.p.) with vehicle (HbCD) or compound 22. Average tumor volumes+/−SEM from 6 mice are represented. […] See also (A). […] Certain body weights relative to starting weight are presented as examples to confirm tolerability and safety. (F): Provided technologies can reduce KAT2A and KAT2B levels and histone acetylation levels in tumor in vivo. […]

KAT2B = KAT2B (Homo sapiens, UniProt Q92831); experiment: KAT2B reduction in LASCPC-01 cells; assay type: cell-based; design: degrader, Western blot
Chain of KAT2B (Q92831 whole entry): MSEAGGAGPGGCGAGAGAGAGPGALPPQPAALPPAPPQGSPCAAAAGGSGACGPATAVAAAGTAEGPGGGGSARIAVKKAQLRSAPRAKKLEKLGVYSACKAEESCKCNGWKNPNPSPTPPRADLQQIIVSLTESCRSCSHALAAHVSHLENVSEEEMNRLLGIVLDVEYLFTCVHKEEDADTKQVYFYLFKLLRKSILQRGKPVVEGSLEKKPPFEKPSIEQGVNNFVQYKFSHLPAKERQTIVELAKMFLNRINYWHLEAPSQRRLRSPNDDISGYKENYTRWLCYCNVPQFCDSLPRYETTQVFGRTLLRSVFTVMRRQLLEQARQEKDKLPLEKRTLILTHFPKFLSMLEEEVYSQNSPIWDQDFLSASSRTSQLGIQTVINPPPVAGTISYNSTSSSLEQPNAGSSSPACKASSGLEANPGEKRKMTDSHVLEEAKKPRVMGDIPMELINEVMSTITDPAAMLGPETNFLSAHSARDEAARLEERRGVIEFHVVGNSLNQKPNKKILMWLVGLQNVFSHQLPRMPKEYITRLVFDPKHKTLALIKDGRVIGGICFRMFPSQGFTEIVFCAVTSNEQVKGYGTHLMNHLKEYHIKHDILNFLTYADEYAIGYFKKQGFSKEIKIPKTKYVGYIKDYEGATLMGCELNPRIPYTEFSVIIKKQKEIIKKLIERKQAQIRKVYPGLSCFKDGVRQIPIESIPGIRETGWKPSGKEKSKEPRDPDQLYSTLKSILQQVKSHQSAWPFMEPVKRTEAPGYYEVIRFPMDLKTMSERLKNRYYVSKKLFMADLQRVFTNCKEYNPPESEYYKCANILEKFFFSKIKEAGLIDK
Procedure: MOLM-13 cells or NCI-H1048 cells were washed with PBS, then lysed with RIPA buffer containing 1×protease and phosphatase inhibitors (SantaCruz Biotechnologies Cat #sc-24948A). Protein was isolated by centrifugation at 12,000×g for 10 minutes at 4° C. and supernatant was collected. Protein was quantified via Bradford assay. Samples were diluted to 4 μg lysate in 16 μL RIPA buffer and then 4 μL of Jess Sample Buffer. Samples were heated at 95° C. for 5 minutes. Samples were loaded onto 12-230 kDa Jess™ Separation Module, 8×25 capillary cartridges (SM-W004, Biotechne). Antibodies loaded were: Primary antibody for KAT2A (GCN5L2 (C26A10) Rabbit mAb (3305, CST)) and for KAT2B (PCAF (C14G9)) Rabbit mAb (3378, CST) at 1:1000 and Anti-Rabbit Detection Module for Jess™ (Cat No #DM-001, Biotechne). Signal was detected by chemiluminescence.
In some embodiments, assessment was performed in LASCPC-01 cells, and reduction of KAT2A and KAT2B levels, including in some cases selectivity for one over the other, was confirmed. In some embodiments, DC50 and/or DC90 were assessed. In some embodiments, DC50 for various compounds was about or no more than about 1 nM. In some embodiments, DC90 for various compounds was about or no more than about 1 nM. In some embodiments, selectivity for the same polypeptide by a compound was observed across multiple types of cells (e.g., when assessed using DC50 and/or DC90). In some embodiments, certain compounds can provide improved properties and/or activities (e.g., potency). Data from certain assessments for certain compounds are presented below as examples (NT: not tested). It has been confirmed that various compounds described herein, including multiple compounds in Table 1, can be deemed to provide further improved properties and/or activities compared to the compound(s) in the table below for certain contexts, aspects, and/or uses.

[1] = test system: small cell lung cancer cells, e.g., NCI-H1048 cells; experiment: Differentiation GSEA signatures from RNA-Seq, NCI-H1048; assay type: cell-based, human; conditions: NCI-H1048, FIG. 1
Procedure: In some embodiments, GSEA signatures are utilized for assessing cell states, differentiation, etc. In some assessments, differentiation GSEA signatures, e.g., from RNA-Seq was performed. A useful protocol is described herein as an example. In some assessments, LASCPC-01 cells, NEPC organoid cell pellets, or NCI-H1048 tumor pieces were flash frozen upon harvest and stored at −80° C. RNA was isolated, mRNA library was prepared (poly A enrichment) and sequencing was run. Reads were aligned to reference v38 using Kallis to generate gene count matrices for each sample. The gene count matrix was the input to the ML pipelines that generate normal atlas scores and cell state classification. It was also input to differential expression analysis using Edger in R. The output of differential expression was input to gene set enrichment analysis (GSEA) to define gene sets that were most shifted by treatment. For defining specific epithelial differentiation endpoints to generate the solid tumor differentiation box plots, cell state gene sets resulting from GSEA are consolidated by cell state to define a consensus set of genes that define epithelial differentiation. Other suitable technologies may also utilized in accordance with the present disclosure.

epithelial GSEA = experiment: Epithelial GSEA in NCI-H1048 tumors of treated mice; assay type: in vivo; conditions: tumors treated as compared to vehicle; FIG. 1 (G)
Procedure: as §1

[2] = test system: NEPC primary patient organoid; experiment: Cell viability of NEPC primary patient organoid, 21 days; assay type: cell-based; conditions: Homo sapiens, 504 h, cell viability relative to DMSO control after 21 days, FIG. 3 (E)
Procedure: (§2) FIG. 3. Provided compounds can provide various activities. (A): Provided technologies can reduce KAT2A and KAT2B levels and histone acetylation levels. […] Cell viability (Cell Titer Glo) data relative to DMSO control after 7 days of treatment with compound 22 are presented as examples to confirm inhibition. GI50=5 nM. (C): Provided technologies can modulate cell states and induce differentiation. […] (D): Provided technologies can reduce KAT2A and KAT2B levels and histone acetylation levels including in neuroendocrine prostate cancer primary patient organoid. […] Concentrations are nM. […] Cell viability data relative to DMSO control after 21 days of treatment with compound 22 are presented as examples to confirm inhibition. GI50=3 nM. (F): Provided technologies can modulate cell states and induce differentiation.

histone acetylation = experiment: Western blot of histone acetylation in neuroendocrine prostate cancer LASCPC-01 cells, 24 hours; assay type: cell-based; conditions: FIG. 3 (A)
Procedure: as §2

NCI-H1048 cells = experiment: Cell growth inhibition (cell count, 8 days), small cell lung cancer NCI-H1048 cells; assay type: cell-based; conditions: Homo sapiens, 192 h, cell count relative to DMSO control after 8 days, FIG. 1 (C)
Procedure: as §1

Chain of KAT2A (Q92830 whole entry): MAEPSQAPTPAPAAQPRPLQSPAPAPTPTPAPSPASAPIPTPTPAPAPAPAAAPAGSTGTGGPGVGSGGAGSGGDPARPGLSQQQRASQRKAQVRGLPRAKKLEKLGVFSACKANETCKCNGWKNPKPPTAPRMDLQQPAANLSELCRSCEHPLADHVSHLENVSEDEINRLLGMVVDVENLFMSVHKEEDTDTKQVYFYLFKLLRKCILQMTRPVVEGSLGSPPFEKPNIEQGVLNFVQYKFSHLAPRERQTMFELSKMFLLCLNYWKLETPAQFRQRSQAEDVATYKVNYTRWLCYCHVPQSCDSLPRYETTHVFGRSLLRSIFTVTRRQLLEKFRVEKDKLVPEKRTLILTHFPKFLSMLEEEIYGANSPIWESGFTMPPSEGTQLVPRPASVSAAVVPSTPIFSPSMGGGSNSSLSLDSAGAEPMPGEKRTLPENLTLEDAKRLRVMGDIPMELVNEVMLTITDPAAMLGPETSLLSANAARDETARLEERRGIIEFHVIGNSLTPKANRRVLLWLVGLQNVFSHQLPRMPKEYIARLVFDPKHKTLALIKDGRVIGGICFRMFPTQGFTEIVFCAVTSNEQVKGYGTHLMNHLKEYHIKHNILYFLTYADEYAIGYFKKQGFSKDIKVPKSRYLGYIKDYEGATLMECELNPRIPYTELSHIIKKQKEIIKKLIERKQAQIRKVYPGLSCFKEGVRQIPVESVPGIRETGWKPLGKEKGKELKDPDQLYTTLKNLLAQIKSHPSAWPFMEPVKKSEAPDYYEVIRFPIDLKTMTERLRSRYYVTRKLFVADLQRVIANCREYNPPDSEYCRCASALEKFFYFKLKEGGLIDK

Q: For `CN1C[C@H](Nc2cnn(C)c(=O)c2Br)C[C@H](c2ccc(C(=O)N3CCC(CN4CCN(c5ccc6c(c5)CN(C5CCC(=O)NC5=O)C6=O)CC4)CC3)cc2)C1` (stereo partly drawn) [Compound 22, 3-(5-(4-((1-(4-((3R,5R)-5-((5-bromo-1-methyl-6-oxo-1,6-dihydropyridazin-4-yl)amino)-1-methylpiperidin-3-yl)benzoyl)piperidin-4-yl)methyl)piperazin-1-yl)-1-oxoisoindolin-2-yl)piperidine-2,6-dione], which “reduction of KAT2A in tumor” value (KAT2A) is on record?
A: Its value is “significant reduction”.

Q: What about the DC50 (KAT2B; LASCPC-01, KAT2B) of the same compound?
A: The DC50 was 0.16 nM.

Q: What about the EC90 (KAT2B; LASCPC-01, KAT2B, read-out: DC90 (the source's name)) of the same compound?
A: The EC90 was 0.42 nM.

Q: And the KAT2B levels (KAT2B; LASCPC-01 cells, FIG. 3)?
A: The KAT2B levels was “potently reduce KAT2A and KAT2B levels”.

Q: And the induction of differentiation [1]?
A: Its induction of differentiation is “induce differentiation (e.g., epithelial, neural, and/or microglial)”.

Q: And the “epithelial GSEA” value (epithelial GSEA)?
A: Its value is “significant upregulation”.

Q: What about the GI50 [2] of the same compound?
A: Its GI50 is 3 nM.

Q: What about the “reduction of histone acetylation level” value (histone acetylation) of the same compound?
A: The value was “confirm such reduction”.

Q: And the GI50 (NCI-H1048 cells)?
A: The GI50 was 6 nM.
